The assay concerns the target T1, cloned human dopamine D3 receptors (Homo sapiens, UniProt P35462).
T1 construct: expressed in transfected cells; membrane homogenate
Briefly: [N-Methyl-3H]Spiroperidol binding to cloned human dopamine D3 receptors. The text has this: [N-Methyl-^3H]Spiroperidol Binding to Cloned Human Dopamine D3 Receptors
This assay measures the in vitro activity of compounds on cloned human dopamine (D3) receptors and predicts the direct dopamine-blocking properties of putative neuropsychiatric agents at human dopamine D3 receptors.
The D3 gene was isolated from a human striatal cDNA library (Stratagene). The gene was sequenced and sub-cloned into the expression vector RC/RSV (Invitrogen). CHO (Chinese Hamster Ovary) cells were stably transfected with 10 μg of the D3/RSV plasmid using the DOTAP method from Boehringer Mannheim and 72 clones that were G418 resistant were isolated. Using mRNA and binding displacement data a single high expressing clone was identified. This clone was then grown in large batches for the purpose of developing a 96 well format assay.
• 1. One plate (10 cm) with approximately 2-3 million D3 cells per plate is incubated with 1 ml of Trypsin-EDTA at room temperature for ˜2 min or until cells have lifted off plates. Four ml of Ham's F12+10% Fetal Bovine Serum+1% Penicillin/Streptomycin+G418 (400 μg/ml) medium are added to resuspend cells and 1 ml of this is added to each large plate (15 cm) containing 19 ml of the same medium as mentioned above. • 2. The 5 large plates are incubated at 37° C.+5% CO2 for ˜3 days or until the cells are confluent. • 3. After these plates are confluent, they are split into 10 large plates. Medium is aspirated off, 2 ml of Trypsin-EDTA are added to each plate and plates are incubated at RT for 2 min or until cells have lifted off the plate. Eight ml of the F12 medium (same medium as #1 above) are added to each plate (10 ml total) to resuspend the cells and 5 ml are transferred to the 2 new plates containing 15 ml of the F12 media. • 4. The 10 large plates are incubated at 37° C.+5% CO2 for ˜2 days or until the cells are confluent. • 5. The 10 large plates are split into 60 large plates (using Trypsin-EDTA as #3 except 4 ml of F12 medium are added to resuspend cells and 1 ml is aliquoted to 6 new plates containing 19 ml of F12 medium each). • 6. Plates are incubated at 37° C.+5% CO2 for ˜3 days or until cell are confluent. • 7. The 60 large plates are then split into 60 roller bottles (100-150 million cells/bottle). Medium is aspirated off, 2 ml of Trypsin-EDTA are added to each plate and incubated at RT for ˜2 minutes or until cells have lifted off plates. Eight ml of F12 medium are added to each plate to resuspend cells and the entire 10 ml are added to 1 roller bottle containing 90 ml of the F12 medium. • 8. The 60 roller bottles are immediately placed on their sides and transferred to the roller bottle incubator. They are incubated at 37° C.+5% CO2 for ˜3-5 days. Cells are spun at 30-40% motor speed in the Form a incubator. • 9. Medium is poured off and cells are washed 2× in PBS. • 10. Cells are then scraped off in 20 ml of PBS and the bottles are rinsed again with 5 ml of PBS to remove any remaining cells. Cells are stored on ice before membrane preparation. • 11. The yield for 60 D3 roller bottles has varied from ˜260-500 mg. • Note: All tissue culture reagents are from Gibco-BRL. C. Membrane Preparation
The cells are harvested into 250 ml centrifuge tubes with 100 volumes of cold phosphate buffered saline (PBS) and spun down (1200×G for 10 min at 4° C.). The medium is removed and 100 ml PBS are added to each centrifuge tube, cells are resuspened and spun down again. The PBS is removed and the final pellet is homogenized in an appropriate volume of 10% DMSO with a polytron on ice at a medium setting.
A 200 μl sample membrane homogenate is added to 200 μl of 1% SDS, vortexed and allowed to stand for 5 min. Aliquots (25, 50 and 100 μl) of this mixture are assayed in duplicate following the standard Bio-Rad DC protein assay protocol (kit catalog number 500-0112) and using reagent S. Absorbance readings are made at 750 nm (note: the most accurate protein OD readings are between 0.1-0.5 units). […]

The values that follow come from patent publication US7772252B2, “Heterocyclic substituted carbonyl derivatives and their use as dopamine D3 receptor ligands” (Aventis Pharmaceuticals Inc., priority 2001, dated 2010).

Like-named read-outs stand apart in the source and are kept apart here.

T1 sequence (P35462 whole entry): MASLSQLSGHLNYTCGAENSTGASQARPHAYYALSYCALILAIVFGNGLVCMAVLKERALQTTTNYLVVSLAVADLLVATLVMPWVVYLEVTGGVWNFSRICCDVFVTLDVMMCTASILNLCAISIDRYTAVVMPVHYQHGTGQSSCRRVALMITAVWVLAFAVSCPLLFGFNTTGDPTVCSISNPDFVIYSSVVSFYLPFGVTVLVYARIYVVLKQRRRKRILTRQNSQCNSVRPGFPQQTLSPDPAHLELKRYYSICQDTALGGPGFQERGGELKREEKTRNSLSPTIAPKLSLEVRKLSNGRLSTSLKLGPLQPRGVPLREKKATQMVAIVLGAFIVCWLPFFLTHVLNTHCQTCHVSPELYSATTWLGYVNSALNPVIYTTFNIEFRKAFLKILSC

In the case of `O=C(Nc1ccccn1)C1CC1CN1CCC(c2noc3ccsc23)CC1` (racemic) [compound 827397], the Ki (read-out: D3 Ki) is 111 nM.

`COc1ccc2c(c1)c(N1CCN(C[C@@H]3C[C@H]3C(=O)N3CCN(Cc4ccc(C)cc4)CC3)CC1)nn2C` [compound 833125]: under “read-out: D3 Ki”, the Ki worked out at 70.8 nM. `O=C([C@@H]1C[C@H]1CN1CCN(c2csc3cc(C(F)(F)F)ccc23)CC1)N1CCCC(Cn2ccnc2)C1` (mixture of isomers) [compound 832268]: the Ki (read-out: D3 Ki) turned out to be 2.62 nM. Same read-out and setting: as for `CCN1CCC(NC(=O)C2CC2CN2CCC(c3noc4ccsc34)CC2)CC1` (racemic) [compound 833372], the figure is 1.04 nM; as for `C[C@H]1CC[C@H](NC(=O)[C@@H]2C[C@H]2CN2CCC(c3n[nH]c4cc(C(F)(F)F)ccc34)CC2)CC1` [compound 833941], 8.98 nM; as for `O=C(NCCC1CCCCN1)[C@@H]1C[C@H]1CN1CCN(c2csc3cc(C(F)(F)F)ccc23)CC1` (mixture of isomers) [compound 832503], 11.1 nM. Regarding `O=C(C1CC1CN1CCC(c2noc3ccsc23)CC1)N1CCC(c2ccccc2)C1` (racemic) [compound 831602], the Ki (read-out: D3 Ki) was 19.6 nM. `O=C([C@@H]1C[C@H]1CN1CCN(c2csc3ncccc23)CC1)N1CCC[C@@H](Cn2ccnc2)C1` [A002437802]: the Ki (read-out: D3 Ki) was 0.251 nM. Turning to `O=C(NCCCN1CCCC1)[C@@H]1C[C@H]1CN1CCN(c2csc3cc(C(F)(F)F)ccc23)CC1` [compound 831887], the Ki (read-out: D3 Ki) is 6.5 nM. As to `O=C(NC1CCN(Cc2cccc3ccccc23)CC1)C1CC1CN1CCC(c2noc3ccsc23)CC1` (racemic) [compound 831822], the Ki (read-out: D3 Ki) worked out at 1.38 nM. Still for that read-out and setting: as for `COc1cccc2c(C3CCN(C[C@@H]4C[C@H]4C(=O)NCCCc4ccccc4)CC3)noc12` [compound 832102], the figure is 81.5 nM.

Turning to `CCC1CCC(NC(=O)C2CC2CN2CCN(Cc3ccc4c(c3)OCO4)CC2)CC1` (racemic) [compound 827240], the Ki (read-out: D3 Ki) was found to be 152 nM. Turning to `O=C(NC1CCN(Cc2ccncc2)CC1)C1CC1CN1CCC(c2noc3ccsc23)CC1` (racemic) [compound 832393], under “read-out: D3 Ki”, the Ki is 8.44 nM. Consider `O=C([C@@H]1C[C@H]1CN1CCC(c2csc3cc(C(F)(F)F)ccc23)CC1)N1CCCC(Cn2ccnc2)C1` (mixture of isomers) [A002287512], for which the Ki (read-out: D3 Ki) turned out to be 0.647 nM. `Cn1nc(N2CCN(C[C@@H]3C[C@H]3C(=O)N[C@H]3CC[C@H](O)CC3)CC2)c2sccc21` [8319560A]: for the setting “read-out: D3 Ki”, the Ki stood at 5.91 nM.

Turning to `COc1ccc2c(c1)c(N1CCN(C[C@@H]3C[C@H]3C(=O)N3CCN(Cc4ccc(Cl)cc4)CC3)CC1)nn2C` [compound 833124], for the setting “read-out: D3 Ki”, the Ki was 26.8 nM. `CCCc1cc(N2CCN(CC3CC3C(=O)NC3CCC(CC)CC3)CC2)nc(C(C)(C)C)n1` (racemic) [compound 817274]: the Ki (read-out: D3 Ki) was found to be 4.49 nM. Same read-out and setting: for `O=C(NC1CCN(Cc2ccccc2Cl)CC1)[C@@H]1C[C@H]1CN1CCC(c2noc3ccsc23)CC1` [compound 832730] the value was 3.62 nM; for `O=C([C@@H]1C[C@H]1CN1CCC(c2noc3ccsc23)CC1)N1CCN(Cc2ccc(F)cc2)CC1` [compound 833132], 108 nM; for `O=C(NC1CCN(Cc2ccc(F)cc2F)CC1)C1CC1CN1CCC(c2noc3ccsc23)CC1` (racemic) [compound 832344], 2.76 nM. As for `Cn1nc(N2CCN(C[C@@H]3C[C@H]3C(=O)NCCCn3cnc4ccccc43)CC2)c2sccc21` [A002202403], the Ki (read-out: D3 Ki) turned out to be 86.8 nM. As for `O=C(NCCN1CCNCC1)[C@@H]1C[C@H]1CN1CCN(c2csc3cc(C(F)(F)F)ccc23)CC1` [compound 833322], for the setting “read-out: D3 Ki”, the Ki was determined as 12.8 nM.

For `O=C([C@@H]1C[C@H]1CN1CCN(c2nc3cccc4c3n2CCC4)CC1)N1CCC(Cn2ccnc2)CC1` [A002437351], the Ki (read-out: D3 Ki) is 32.7 nM. For `Cn1nc(N2CCN(C[C@@H]3C[C@H]3C(=O)N[C@H]3CC[C@H](C)CC3)CC2)c2ccccc21` [compound 833702], for the setting “read-out: D3 Ki”, the Ki was determined as 0.495 nM. For the compound `CC[C@H]1CC[C@H](NC(=O)CCCN2CCN(c3csc4cc(C(F)(F)F)ccc34)CC2)CC1` [compound 826806], the Ki (read-out: d3Ki) amounted to 40 nM. On to `O=C(NCCCn1ccnc1)[C@@H]1C[C@H]1CN1CCC(c2noc3c(C(F)(F)F)cccc23)CC1` [compound 832274], for which the Ki (read-out: D3 Ki) came out at 52.4 nM. Same read-out and setting: as for `O=C(N[C@H]1CC[C@H](O)CC1)[C@@H]1C[C@H]1CN1CCN(c2nn(-c3ccc(F)cc3)c3ccsc23)CC1` [compound 832566], the figure is 1.76 nM. `O=C([C@@H]1C[C@H]1CN1CCC(c2noc3ccsc23)CC1)N1CCC(c2nc3ccccc3s2)CC1` [compound 832527]: the Ki (read-out: D3 Ki) is 45.4 nM. As for `CC(C)(C)OC(=O)N1CCC(NC(=O)C2CC2CN2CCC(c3noc4ccsc34)CC2)CC1` (racemic) [compound 832391], for the setting “read-out: D3 Ki”, the Ki turned out to be 77.9 nM. As for `O=C(NC1CCN(C(=O)c2ccc(Cl)c(Cl)c2)CC1)C1CC1CN1CCC(c2noc3ccsc23)CC1` (racemic) [compound 832464], the Ki (read-out: D3 Ki) worked out at 12.8 nM. For the compound `O=C(NC1CCN(Cc2cccc(C(F)(F)F)c2)CC1)C1CC1CN1CCC(c2noc3ccsc23)CC1` (racemic) [compound 831831], the Ki (read-out: D3 Ki) was found to be 6.31 nM. Take `Cn1nc(N2CCN(C[C@@H]3C[C@H]3C(=O)NC3CCN(Cc4cc(F)ccc4F)CC3)CC2)c2sccc21` [A002436429]: for the setting “read-out: D3 Ki”, the Ki was 4.16 nM. Consider `O=C(NCCc1ccccn1)[C@@H]1C[C@H]1CN1CCC(c2noc3ccsc23)CC1` [compound 831274], for which, under “read-out: D3 Ki”, the Ki was found to be 17.4 nM.

Consider `O=C(NCCCn1nnc2ccccc21)C1CC1CN1CCC(c2noc3ccsc23)CC1` (racemic) [compound 831687], for which the Ki (read-out: D3 Ki) was found to be 277 nM.

With `Cc1cc(C)c(CN2CCN(C(=O)C3CC3CN3CCC(c4noc5ccsc45)CC3)CC2)c(C)c1` (racemic) [compound 832194], the Ki (read-out: D3 Ki) came to 23 nM. Regarding `O=C(NCCCCc1ccccc1)[C@@H]1C[C@H]1CN1CCC(c2noc3ccsc23)CC1` [compound 831047], where the note is “read-out: D3 Ki”, the Ki was determined as 2.87 nM. Consider `O=C([C@@H]1C[C@H]1CN1CCN(c2csc3cc(C(F)(F)F)ccc23)CC1)N1CCC[C@H](Cn2ccnc2)C1` [compound 833098], for which the Ki (read-out: D3 Ki) was 8.84 nM. Take `O=C(NC1CCN(Cc2ccc(Cl)c(Cl)c2)CC1)C1CC1CN1CCC(c2noc3ccsc23)CC1` (racemic) [compound 831998]: the Ki (read-out: D3 Ki) was found to be 7.46 nM. Same read-out and setting: as for `O=C(NCCCN1CCCCC1)C1(CCN2CCN(c3csc4cc(C(F)(F)F)ccc34)CC2)CC1` [compound 833475], the figure is 22.4 nM. On the same count and under the same terms, for `O=C(C1CC1CN1CCC(c2noc3ccsc23)CC1)N1CCN(S(=O)(=O)Cc2ccccc2)CC1` (racemic) [compound 831837] the value was 491 nM; for `O=C(NCCc1cccc(F)c1)[C@@H]1C[C@H]1CN1CCC(c2noc3ccsc23)CC1` [compound 832726], 7.05 nM. As for `Cn1nc(C2CCN(C[C@@H]3C[C@H]3C(=O)N[C@H]3CC[C@H](C)CC3)CC2)c2ccc(C(F)(F)F)cc21` [compound 833696], the Ki (read-out: D3 Ki) is 268 nM. Regarding `O=C(C1CC1CN1CCC(c2noc3ccsc23)CC1)N1CCC(c2nc3ccccc3s2)CC1` (racemic) [compound 831702], the Ki (read-out: D3 Ki) is 27.9 nM.

Consider `O=C([C@@H]1C[C@H]1CN1CCN(c2csc3cc(C(F)(F)F)ccc23)CC1)N1CCN(Cc2ccccc2)CC1` [compound 831883], for which the Ki (read-out: D3 Ki) was found to be 48.1 nM. Take `O=C(C1CC1CN1CCC(c2noc3ccsc23)CC1)N1CCN(c2ccc(OCc3ccccc3)cc2)CC1` (racemic) [compound 832059]: the Ki (read-out: D3 Ki) was determined as 4.13 nM.

With `Cc1ccc2c(c1)c(C1CCN(C[C@@H]3C[C@H]3C(=O)NCCCn3ccnc3)CC1)nn2C` [compound 834129], the Ki (read-out: D3 Ki) turned out to be 6.75 nM.
